Measurements published in patent publication US12098217B2, “Fusion peptides as antimicrobial agents” (CENTRE NATIONAL DE LA RECHERCHE SCIENTIFIQUE, priority 2019, dated 2024).
In brackets after ≈: the same amount, converted by molar mass. Like-named read-outs stand apart in the source and are kept apart here. Square brackets hold non-standard residues; d marks the D form. Peptide text beside a SMILES is read from it. * marks the point of attachment. 5FAM = O=C1OC2(c3ccc(O)cc3Oc3cc(O)ccc32)c2ccc(C(=O)*)cc21; Phe(3,4-Cl2) = N[C@@H](Cc1ccc(Cl)c(Cl)c1)C(=O)O; Cha = N[C@@H](CC1CCCCC1)C(=O)O

Legend:
[1] = test system: E. coli ATCC 25922 (DSM 1103) strain; format: cell-based; settings: for MIC: ATCC 25922, 36 h
Protocol: (§1) E. coli strains were cultivated on either agar or liquid 1× Mueller Hinton broth unless specified. MIC assays were performed in duplicate in 96-well microtiter plates on the basis of the protocol recommended by the Clinical and Laboratory Standards Institute. Briefly, a mix of 5-6 fresh (less than 36 hours) colonies grown on MH agar plates were inoculated in 3 ml of MH broth and incubated for about 16 h at 37° C. under agitation. 30 μl of this saturated culture were inoculated in 3 ml of fresh medium and allowed to grow until OD600 nm of about 0.6-0.8. Dilution to an OD600 nm of 0.002 was made in MH broth. Within a time laps not exceeding 30 min, 50 μl of this cell suspension was added to 50 μl of MH broth (containing or not the peptide/antibiotic diluted in MH broth) in wells of a 96-well round bottom microwell plate (Greiner; final cell density about 2 to 5×10^5 cfu/ml). Plates were incubated at 37° C. for 18-24 h and final turbidity of each well was measured at 620 nm using a Multiskan FC microplate reader (Thermo Scientific). MIC was defined as the minimal antibiotic concentration that result in no increase of turbidity at that time. Each MIC determination was performed in duplicate and at least in two independent experiments. Plating of 75 μl of the content of the wells of interest on LB Agar plates was used to determine the MBC that is defined by a decrease of at least 99.9% of cell viability as compared to the number of viable cells in the inoculum (about 2 to 5×10^4 cfu).
The antimicrobial activities of these peptides have been tested against the E. coli ATCC 25922 (DSM 1103) strain in 1× Mueller-Hinton broth as mentioned above.
The antimicrobial activities of these peptides and controls have been tested against the E. coli ATCC 25922 (DSM 1103) strain in 1× Mueller-Hinton broth.

[2] = test system: E. coli 70S ribosome (^Ec70S); assay: ITC, peptide interaction with E. coli 70S ribosome; format: binding
Protocol: E. coli MRE600 cells were grown at 37° C. in LB medium until OD^600=1. Cells were centrifuged at 4° C., and pellets were resuspended in buffer A (20 mM Tris HCl pH 7.5; 200 mM NH4Cl; 20 mM MgCl2; 0.1 mM EDTA; 6 mM β-mercaptoethanol) and lysed using a French press at 1.6 kbar. The crude lysate was centrifuged (18 200 rpm) for 30 mn at 4° C. The supernatant was further centrifuged (47000 rpm) at 4° C. for 4 hours and the pellet resuspended in 12.5 ml of buffer A. This solution was laid on a 30% sucrose cushion and centrifuged (34 000 rpm) for 19 hours at 4° C. The ribosome pellet was resuspended in 12.5 ml buffer B (20 mM Tris HCl pH 7.5; 50 mM NH4Cl; 10 mM MgCl2; 0.1 mM EDTA; 6 mM β-mercaptoethanol) and centrifuged again (18 200 rpm) for 1 hour at 4° C. The supernatant was concentrated on Centrikon 100K (Millipore) and washed extensively with ITC 70S buffer. Ribosome concentration was determined by UV absorption at 260 nm. Samples were snap frozen in liquid nitrogen and kept at −80° C.
(§2) ITC experiments were performed on a iTC200 (Microcal Malvern Panalytical) or PEAQ-ITC instrument (Microcal Malvern Panalytical). The E. coli SC were washed extensively with ITC buffer (R1 buffer: 10 mM Hepes pH 7.4, 0.15 M NaCl, 3 mM EDTA) on Centrikon 10K at 4° C. before ITC experiments. […] Similarly, E. coli 70S ribosome particles were also washed extensively with ITC 70S buffer (50 mM Tris HCl pH7.5, 30 mM KCl, 70 mM NH4Cl, 7 mM MgCl2, 1 mM DTT, 5% glycerol) on Centrikon 100K at 4° C. before ITC experiments. Peptides (100 to 400 μM) were titrated at 30° C. (303.15 K) in sequential injections (usually 2 μl each) into a SC (20 or 30 μM) or 70S (10 to 15 μM) solution. Data were corrected from control experiments in which peptides were injected in ITC buffer solution. Each titration was performed at least twice. Analyses of experimental data were performed with AFFINImeter software (https://www.affinimeter.com; S4S, Santiago de Compostela, Spain).
The lack of interaction with the ribosome of E. coli has been measured by ITC at 30° C.:
The interactions of these peptides with the E. coli SC (beta ring) and the ribosome were measured by ITC at […]: […]

[3] = target: T1, E. coli SC (^EcSC, beta ring, DnaN) (Escherichia coli, UniProt P0A988); assay: ITC, peptide interaction with E. coli sliding clamp; format: binding
T1 construct: inferred from the pET15b vector and the Ni-NTA/imidazole purification; made in house; host or cells: E. coli BL21 (DE3) pLys
Protocol: The DnaN protein was expressed from plasmids pET15b, containing the dnaN gene from E. coli, transfected in BL21 (DE3) pLys E. coli strain. Cells were grown in LB at 37° C. to OD 0.5, then induced by IPTG (0.1 mM) at 28° C. overnight. DnaN protein was first enriched on a Ni-NTA column, eluted with an imidazole step (300 mM) and further purified on a Source Q column in buffer containing 20 mM Tris HCl pH 7.5, 0.5 mM EDTA and 10% glycerol, using a gradient from 0 to 0.5 M NaCl. After a final ultracentrifugation (45K, 1 h, 20° C.), soluble proteins were concentrated on a Centricon 30K (Millipore) in the same buffer and stored at 4° C. in 2 M ammonium sulfate.
as §2, with “[…] […]” for “Peptides (100 to 400 μM) were titrated at 30° C. (303.15 K) in sequential injections (usually 2 μl each) into a SC (20 or 30 μM) or 70S (10 to 15 μM) solution.”

E. coli D22 strain = assay: microbe, parasite or virus in culture; format: cell-based; settings: D22 strain, 36 h
Excerpt: E. coli strain D22 (F-, IpxC101, proA23, lac-28, tsx-81, trp-30, his-51, tufA1, rpsL173(strR), ampCp-1 was purchased at E. coli Genetic Stock Center (Yale University) and used in the determination of MIC and in the peptide penetration assays. E. coli ATCC23724 cells were used to infect D. melanogaster flies. 70S ribosomes were purified from the E. coli MRE600 strain (Accession AY140951) and BL21 (DE3) pLys strain was used for production of the DnaN protein.
as §1

E. coli = settings: cited from earlier work
[4] = ITC 25° C., E. coli SC (beta ring)
[5] = ITC, 30° C., E. coli ribosome, FITC-Onc112 series
[6] = ITC 30° C., Table 2B, ^Ec70S, Ni = no specific interaction, FITC peptides (*) values not well defined
[7] = ITC 30° C., Table 2A, ^EcSC, Ni = no specific interaction

T1 sequence (P0A988 whole entry): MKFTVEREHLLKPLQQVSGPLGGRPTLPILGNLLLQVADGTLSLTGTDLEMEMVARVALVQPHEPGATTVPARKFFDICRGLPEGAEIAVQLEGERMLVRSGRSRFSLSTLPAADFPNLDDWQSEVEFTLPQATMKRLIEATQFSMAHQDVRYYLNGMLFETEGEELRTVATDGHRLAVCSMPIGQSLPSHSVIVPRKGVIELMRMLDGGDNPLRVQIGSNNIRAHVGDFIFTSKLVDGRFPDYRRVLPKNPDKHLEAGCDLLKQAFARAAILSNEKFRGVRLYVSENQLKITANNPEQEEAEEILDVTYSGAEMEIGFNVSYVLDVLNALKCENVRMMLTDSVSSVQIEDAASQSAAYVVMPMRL

**Q.** With `CC[C@H](C)[C@H](NC(=O)[C@@H](CCCNC(=N)N)NC(=O)[C@H](CCCNC(=N)N)NC(=O)[C@@H]1CCCN1C(=O)[C@@H]1CCCN1C(=O)[C@H](CCCNC(=N)N)NC(=O)[C@@H]1CCCN1C(=O)[C@H](CCCNC(=N)N)NC(=O)[C@@H]1CCCN1C(=O)[C@H](CC(C)C)NC(=O)[C@H](Cc1ccc(O)cc1)NC(=O)[C@@H]1CCCN1C(=O)[C@@H]1CCCN1C(=O)[C@H](CCCCN)NC(=O)[C@H](CC(=O)O)NC(=O)[C@@H](NC(=O)[C@H](CCCNC(=N)N)NC(=O)[C@@H]1CCCN1C(=O)CNC(=O)[C@H](Cc1ccccc1)NC(=O)[C@H](CC(C)C)NC(=O)[C@H](CC(=O)O)NC(=O)[C@H](CC1CCCCC1)NC(=O)[C@H](CCC(N)=O)NC(C)=O)C(C)C)C(=O)N[C@@H](Cc1ccc(O)cc1)C(=O)N[C@@H](CC(N)=O)C(=O)N[C@H](CCCNC(=N)N)C(N)=O` [CM1-76] (Ac-Q[Cha]DLFGPRVDKPPYLPRPRPPR[dR]IYN[dR]-NH2) as the compound, how does the “MIC” value [1] read?
**A.** 8 to 16 µM

**Q.** What about the “factor of improvement of antimicrobial activity versus CA3-30” value ([1]; E. coli ATCC 25922, MIC) of the same compound?
**A.** 2

**Q.** And the “interaction with the E. coli ribosome (70S), in words” value ([2]; ITC 25° C.)?
**A.** no interaction

**Q.** And the “ΔG” value [3, 4]?
**A.** -37.7 kJ/mol

**Q.** And the “ΔH” value [3, 4]?
**A.** -44.8 kJ/mol

**Q.** Which “MIC” value [1] does the source give for `CC[C@H](C)[C@H](NC(=O)[C@@H](CCCNC(=N)N)NC(=O)[C@H](CCCNC(=N)N)NC(=O)[C@@H]1CCCN1C(=O)[C@@H]1CCCN1C(=O)[C@H](CCCNC(=N)N)NC(=O)[C@@H]1CCCN1C(=O)[C@H](CCCNC(=N)N)NC(=O)[C@@H]1CCCN1C(=O)[C@H](CC(C)C)NC(=O)[C@H](Cc1ccc(O)cc1)NC(=O)[C@@H]1CCCN1C(=O)[C@@H]1CCCN1C(=O)[C@H](CCCCN)NC(=O)[C@H](CC(=O)O)NC(=O)[C@@H](NC(=O)[C@H](CCCCN)NC(=O)c1ccc2c(c1)C(=O)OC21c2ccc(O)cc2Oc2cc(O)ccc21)C(C)C)C(=O)N[C@@H](Cc1ccc(O)cc1)C(=O)N[C@@H](CC(N)=O)C(=O)N[C@H](CCCNC(=N)N)C(=O)NCC(=O)N1CCC[C@H]1C(=O)N[C@@H](CCCNC(=N)N)C(=O)N[C@@H](CCC(N)=O)C(=O)N[C@@H](CC1CCCCC1)C(=O)N[C@@H](CC(=O)O)C(=O)N[C@@H](CC(C)C)C(=O)N[C@@H](Cc1ccccc1)C(=O)O` [CM1-92] (5FAM-KVDKPPYLPRPRPPR[dR]IYN[dR]GPRQ[Cha]DLF-OH) here?
**A.** 16 µM (≈ 61.5 µg/mL)

**Q.** And the Kd [2, 5]?
**A.** > 50 µM

**Q.** Which results are given for `CC[C@H](C)[C@H](NC(=O)[C@@H](CCCNC(=N)N)NC(=O)[C@H](CCCNC(=N)N)NC(=O)[C@@H]1CCCN1C(=O)[C@@H]1CCCN1C(=O)[C@H](CCCNC(=N)N)NC(=O)[C@@H]1CCCN1C(=O)[C@H](CCCNC(=N)N)NC(=O)[C@@H]1CCCN1C(=O)[C@H](CC(C)C)NC(=O)[C@H](Cc1ccc(O)cc1)NC(=O)[C@@H]1CCCN1C(=O)[C@@H]1CCCN1C(=O)[C@H](CCCCN)NC(=O)[C@H](CC(=O)O)NC(=O)[C@@H](NC(=O)[C@H](CCCCN)NC(=O)c1ccc2c(c1)C(=O)OC21c2ccc(O)cc2Oc2cc(O)ccc21)C(C)C)C(=O)N[C@@H](Cc1ccc(O)cc1)C(=O)N[C@@H](CC(N)=O)C(=O)N[C@H](CCCNC(=N)N)C(=O)NCC(=O)N1CCC[C@H]1C(=O)N[C@@H](CCCNC(=N)N)C(=O)N[C@@H](CCC(N)=O)C(=O)N[C@@H](CC1CCCCC1)C(=O)N[C@@H](CC(=O)O)C(=O)N[C@@H](CC(C)C)C(=O)N[C@@H](Cc1ccc(Cl)c(Cl)c1)C(=O)O` [CM1-94] (5FAM-KVDKPPYLPRPRPPR[dR]IYN[dR]GPRQ[Cha]DL[Phe(3,4-Cl2)]-OH; N-terminus assumed)?
**A.** MIC [1]: 4 to 8 µM; Kd [2, 5]: > 10 µM

**Q.** With `CC[C@H](C)[C@H](NC(=O)[C@@H]1CCCN1C(=O)[C@H](CCCNC(=N)N)NC(=O)[C@@H]1CCCN1C(=O)[C@@H]1CCCN1C(=O)[C@@H](NC(=O)[C@@H]1CCCN1C(=O)[C@H](CCCNC(=N)N)NC(=O)[C@@H]1CCCN1C(=O)[C@H](CC(C)C)NC(=O)[C@H](Cc1ccc(O)cc1)NC(=O)[C@H](CO)NC(=O)CNC(=O)[C@H](CCCCN)NC(=O)[C@H](CC(=O)O)NC(=O)[C@@H](N)C(C)C)[C@@H](C)O)C(=O)N[C@@H](Cc1ccc(O)cc1)C(=O)N[C@@H](CC(N)=O)C(=O)N[C@@H](CCCNC(=N)N)C(=O)N[C@@H](CC(N)=O)C(N)=O` [Py, reference compound] (H-VDKGSYLPRPTPPRPIYNRN-NH2) as the compound, how does the Kd ([2]; ITC 30° C., Table 2B, ^Ec70S, Ni = no specific interaction) read?
**A.** 0.0155 µM

**Q.** And the “ΔG” value [2, 6]?
**A.** -45.6 kJ/mol

**Q.** What about the “ΔH” value [2, 6] of the same compound?
**A.** -80.3 kJ/mol

**Q.** What about the “−TΔS” value [2, 6] of the same compound?
**A.** 34.4 kJ/mol

**Q.** And the “MBC” value (E. coli D22 strain)?
**A.** 8 mg/L (≈ 3.42 µM)

**Q.** And the “interaction with ^EcSC, in words” value ([3]; ITC 30° C.)?
**A.** do not interact

**Q.** What about the “ΔH (kcal/mole)” value ([3]; ITC 30° C. (303.15 K), Table 2A, ^EcSC, Ni = no specific interaction) of the same compound?
**A.** Ni

**Q.** What about the “Kd (nM)” value [3, 7] of the same compound?
**A.** Ni

**Q.** What about the “ΔG (kcal/mole)” value [3, 7] of the same compound?
**A.** Ni

**Q.** And the “−TΔS (kcal/mole)” value [3, 7]?
**A.** Ni

**Q.** What about the “MIC of previous reports” value (E. coli) of the same compound?
**A.** 3.69 to 7.56 µM

**Q.** And the “MIC of previous reports” value (E. coli; other E. coli strains and/or culture media)?
**A.** 9 to 18 mg/L
